Assay [1] deals with T1, Estrogen receptor beta (Homo sapiens, UniProt Q92731).
Description: (§1) Inhibition of binding of 17 beta-estradiol to human Estrogen receptor beta
For assay [2], the target named is T1, Estrogen receptor beta. The source holds these as a separate data set.
Description: as §1
Assay [3] concerns the target T2, Estrogen receptor (Homo sapiens, UniProt P03372).
T2 sequence (P03372 whole entry): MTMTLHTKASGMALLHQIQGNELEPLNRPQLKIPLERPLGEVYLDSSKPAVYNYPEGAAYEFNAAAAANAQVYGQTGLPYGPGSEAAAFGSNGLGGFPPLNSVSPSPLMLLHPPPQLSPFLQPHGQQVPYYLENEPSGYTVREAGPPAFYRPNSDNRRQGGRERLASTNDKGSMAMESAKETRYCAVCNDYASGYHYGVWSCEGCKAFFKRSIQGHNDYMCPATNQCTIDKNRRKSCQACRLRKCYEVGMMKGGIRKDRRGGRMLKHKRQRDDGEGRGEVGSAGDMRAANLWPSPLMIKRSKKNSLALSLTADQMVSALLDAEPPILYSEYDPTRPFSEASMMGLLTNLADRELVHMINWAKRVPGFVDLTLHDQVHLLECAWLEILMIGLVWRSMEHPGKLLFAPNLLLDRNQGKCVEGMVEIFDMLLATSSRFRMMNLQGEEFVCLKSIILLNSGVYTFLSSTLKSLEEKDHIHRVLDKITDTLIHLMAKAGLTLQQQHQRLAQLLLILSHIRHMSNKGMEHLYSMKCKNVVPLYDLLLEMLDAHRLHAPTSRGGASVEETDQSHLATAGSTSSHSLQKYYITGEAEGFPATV
Description: (§2) Inhibition of binding of 17 beta-estradiol to human Estrogen receptor alpha

Assay [4] addresses T2, Estrogen receptor. The source holds these as a separate data set.
Description: as §2

From ChEMBL document CHEMBL1134138, “Phytoestrogens from the roots of Polygonum cuspidatum (Polygonaceae): structure-requirement of hydroxyanthraquinones for estrogenic activity” (Bioorg Med Chem Lett, 2001) come the findings set out here.

T1 sequence (Q92731 whole entry): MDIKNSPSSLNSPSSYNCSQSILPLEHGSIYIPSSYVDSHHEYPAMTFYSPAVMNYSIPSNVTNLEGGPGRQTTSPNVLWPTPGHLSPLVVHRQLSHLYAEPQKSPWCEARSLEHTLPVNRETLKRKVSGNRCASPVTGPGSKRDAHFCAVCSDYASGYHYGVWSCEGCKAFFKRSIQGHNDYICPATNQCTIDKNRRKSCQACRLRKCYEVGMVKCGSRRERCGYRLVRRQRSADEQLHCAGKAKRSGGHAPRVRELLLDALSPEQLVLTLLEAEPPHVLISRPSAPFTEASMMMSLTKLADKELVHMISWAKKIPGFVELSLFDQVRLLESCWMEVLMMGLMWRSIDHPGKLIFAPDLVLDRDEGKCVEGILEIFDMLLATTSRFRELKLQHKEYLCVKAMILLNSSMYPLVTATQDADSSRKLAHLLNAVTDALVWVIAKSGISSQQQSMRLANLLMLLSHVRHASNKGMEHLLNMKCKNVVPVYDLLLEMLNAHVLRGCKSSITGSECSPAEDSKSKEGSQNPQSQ

For orientation: IC50 means the concentration needed to halve the response being measured. A higher IC50 goes with a need for much substance. As a reminder, the Ki is the dissociation constant of the complex between target and ligand, obtained from inhibition or displacement. Low readings indicate tighter binding, high ones weaker binding. For the compound `Cc1cc(O)c2c(c1)C(=O)c1cc(O)cc(O)c1C2=O` [EMODIN], in assay [1], half-maximal inhibition (IC50) was put at 5.2 µM. The compound further registered a Ki in assay [2] of 1.5 µM.

For the compound `O=C1c2ccc(O)cc2C(=O)c2ccc(O)cc21`, the IC50 worked out at 2.4 µM in assay [1] and 1.1 µM in assay [3]. For the same compound, the Ki in assay [2] was 0.69 µM; in assay [4], 0.31 µM.

For `Cc1cc(O)c2c(c1)C(=O)c1cc(O)cc(O[C@@H]3O[C@H](CO)[C@@H](O)[C@H](O)[C@H]3O)c1C2=O` [EMODIN 8-O-BETA-D-GLUCOPYRANOSIDE], the IC50 in assay [1] came to 62 µM; in assay [3], 20 µM. Further, the Ki in assay [2] was found to be 18 µM; in assay [4], 5.7 µM.
